Key:
[1] = species: Homo sapiens; experiment: Selectivity ratio of IC50 for PI3Kdelta (unknown origin) to IC50 for PI3Kgamma (unknown origin)
[2] = species: Homo sapiens; experiment: Selectivity ratio of IC50 for PI3Kbeta (unknown origin) to IC50 for PI3Kgamma (unknown origin)
[3] = biological target: T1, Phosphatidylinositol 4,5-bisphosphate 3-kinase catalytic subunit gamma isoform (Homo sapiens, UniProt P48736); experiment: Inhibition of PI3Kgamma in human THP1 cells assessed as reduction in MCP1-induced Akt phosphorylation at Thr308/Ser473 residue preincubated for 1 hr followed by MCP1 stimulation for 3 mins by FACS analysis; type: cell-based
[4] = species: Homo sapiens; experiment: Selectivity ratio of IC50 for PI3Kalpha (unknown origin) to IC50 for PI3Kgamma (unknown origin)
[5] = biological target: T1, Phosphatidylinositol 4,5-bisphosphate 3-kinase catalytic subunit gamma isoform; experiment: Inhibition of PI3Kgamma (unknown origin) using PIP2 as substrate measured after 15 mins in presence of [33P]ATP by scintillation counting method

T1 sequence (P48736 whole entry, canonical isoform): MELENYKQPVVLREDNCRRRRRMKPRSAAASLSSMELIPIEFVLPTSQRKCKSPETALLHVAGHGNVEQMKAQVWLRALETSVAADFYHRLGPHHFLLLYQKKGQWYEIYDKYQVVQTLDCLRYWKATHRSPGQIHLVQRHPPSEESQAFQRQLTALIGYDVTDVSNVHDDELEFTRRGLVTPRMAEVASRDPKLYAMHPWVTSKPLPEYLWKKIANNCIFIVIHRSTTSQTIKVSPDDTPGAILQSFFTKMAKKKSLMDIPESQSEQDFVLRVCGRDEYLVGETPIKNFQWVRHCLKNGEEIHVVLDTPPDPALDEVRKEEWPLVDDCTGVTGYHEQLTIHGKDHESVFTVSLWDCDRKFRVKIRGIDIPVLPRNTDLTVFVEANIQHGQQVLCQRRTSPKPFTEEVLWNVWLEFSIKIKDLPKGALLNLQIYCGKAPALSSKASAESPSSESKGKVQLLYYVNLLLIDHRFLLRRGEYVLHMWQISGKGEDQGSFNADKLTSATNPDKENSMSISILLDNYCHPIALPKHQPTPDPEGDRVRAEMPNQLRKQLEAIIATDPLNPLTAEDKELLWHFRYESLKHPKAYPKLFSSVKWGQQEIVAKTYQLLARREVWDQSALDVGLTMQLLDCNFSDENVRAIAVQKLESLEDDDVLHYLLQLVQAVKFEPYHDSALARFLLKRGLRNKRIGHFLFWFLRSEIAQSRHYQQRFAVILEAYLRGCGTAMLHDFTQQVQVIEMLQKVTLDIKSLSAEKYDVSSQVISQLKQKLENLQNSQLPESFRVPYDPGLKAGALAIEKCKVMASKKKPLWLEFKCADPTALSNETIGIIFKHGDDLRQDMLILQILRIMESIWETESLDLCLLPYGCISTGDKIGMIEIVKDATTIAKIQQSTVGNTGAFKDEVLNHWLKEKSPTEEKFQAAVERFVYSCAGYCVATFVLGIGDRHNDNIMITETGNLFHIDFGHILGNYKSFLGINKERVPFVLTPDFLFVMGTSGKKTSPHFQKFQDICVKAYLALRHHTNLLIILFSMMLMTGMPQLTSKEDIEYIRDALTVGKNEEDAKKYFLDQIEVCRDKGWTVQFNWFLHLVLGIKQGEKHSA

| Structure (SMILES) | Ratio IC50 [1] | Ratio IC50 [2] | IC50 [3] [nM] | Ratio IC50 [4] | Ki [5] [nM] |
| --- | --- | --- | --- | --- | --- |
| COc1cc(-c2ccc3c(n2)CN(c2cnn(CC(F)(F)F)c2)C3=O)cnc1OC | 13 | 31 | 47 | 65 |  |
| COc1cc(-c2cc3c(c(C)n2)C(=O)N(c2cnn(CC(F)(F)F)c2)C3)cnc1OC | 6 | 8 | 270 | 15 | 14 |
